Data from ChEMBL document CHEMBL1140295, “Synthesis and monoamine transporter binding properties of 2,3-diaryltropanes” (J Med Chem, 2005).

Columns and labels:
[1] = target: Sodium-dependent serotonin transporter (Homo sapiens, UniProt P31645); assay: Displacement of [3H]paroxetine from 5HTT
[2] = target: Sodium-dependent dopamine transporter (Homo sapiens, UniProt Q01959); assay: Displacement of [3H]WIN-35428 from DAT
[3] = target: Sodium-dependent noradrenaline transporter (Homo sapiens, UniProt P23975); assay: Displacement of [3H]nisoxetine from NET
Sodium-dependent noradrenaline transporter, sequence (P23975 whole entry): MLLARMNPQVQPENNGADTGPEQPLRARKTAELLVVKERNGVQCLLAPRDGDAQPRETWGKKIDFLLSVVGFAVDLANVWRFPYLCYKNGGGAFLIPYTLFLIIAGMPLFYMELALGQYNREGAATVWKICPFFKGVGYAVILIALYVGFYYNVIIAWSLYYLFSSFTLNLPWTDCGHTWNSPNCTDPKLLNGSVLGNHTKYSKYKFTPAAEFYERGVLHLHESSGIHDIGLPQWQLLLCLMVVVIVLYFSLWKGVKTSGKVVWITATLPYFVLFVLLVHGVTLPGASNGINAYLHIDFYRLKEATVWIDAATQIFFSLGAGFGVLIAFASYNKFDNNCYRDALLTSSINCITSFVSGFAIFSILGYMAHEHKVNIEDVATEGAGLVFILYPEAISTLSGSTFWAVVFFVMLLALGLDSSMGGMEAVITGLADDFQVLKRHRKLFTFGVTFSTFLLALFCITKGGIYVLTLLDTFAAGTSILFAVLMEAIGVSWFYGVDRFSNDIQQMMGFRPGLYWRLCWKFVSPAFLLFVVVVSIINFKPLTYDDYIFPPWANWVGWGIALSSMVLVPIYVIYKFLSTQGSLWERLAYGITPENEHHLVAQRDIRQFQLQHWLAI

[4] = species: Homo sapiens; assay: Selectivity for DAT over 5HTT
[5] = species: Homo sapiens; assay: Selectivity for DAT over NET

Sodium-dependent dopamine transporter, sequence (Q01959 whole entry): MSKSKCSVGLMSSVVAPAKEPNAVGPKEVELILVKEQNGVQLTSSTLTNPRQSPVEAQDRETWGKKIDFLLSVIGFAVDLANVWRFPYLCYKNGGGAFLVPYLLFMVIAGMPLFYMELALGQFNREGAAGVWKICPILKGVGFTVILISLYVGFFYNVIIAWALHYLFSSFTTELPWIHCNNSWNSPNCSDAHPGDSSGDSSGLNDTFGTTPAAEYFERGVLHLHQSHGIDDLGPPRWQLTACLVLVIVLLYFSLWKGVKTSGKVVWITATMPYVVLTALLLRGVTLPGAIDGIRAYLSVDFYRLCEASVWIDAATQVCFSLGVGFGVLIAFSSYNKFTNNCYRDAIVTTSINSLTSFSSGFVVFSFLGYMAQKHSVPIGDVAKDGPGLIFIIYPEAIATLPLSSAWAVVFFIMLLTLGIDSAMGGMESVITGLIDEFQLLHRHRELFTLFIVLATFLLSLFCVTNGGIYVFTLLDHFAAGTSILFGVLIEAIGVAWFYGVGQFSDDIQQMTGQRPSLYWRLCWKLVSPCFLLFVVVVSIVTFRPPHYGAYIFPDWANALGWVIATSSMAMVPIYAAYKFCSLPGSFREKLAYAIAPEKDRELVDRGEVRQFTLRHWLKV
Sodium-dependent serotonin transporter, sequence (P31645 whole entry): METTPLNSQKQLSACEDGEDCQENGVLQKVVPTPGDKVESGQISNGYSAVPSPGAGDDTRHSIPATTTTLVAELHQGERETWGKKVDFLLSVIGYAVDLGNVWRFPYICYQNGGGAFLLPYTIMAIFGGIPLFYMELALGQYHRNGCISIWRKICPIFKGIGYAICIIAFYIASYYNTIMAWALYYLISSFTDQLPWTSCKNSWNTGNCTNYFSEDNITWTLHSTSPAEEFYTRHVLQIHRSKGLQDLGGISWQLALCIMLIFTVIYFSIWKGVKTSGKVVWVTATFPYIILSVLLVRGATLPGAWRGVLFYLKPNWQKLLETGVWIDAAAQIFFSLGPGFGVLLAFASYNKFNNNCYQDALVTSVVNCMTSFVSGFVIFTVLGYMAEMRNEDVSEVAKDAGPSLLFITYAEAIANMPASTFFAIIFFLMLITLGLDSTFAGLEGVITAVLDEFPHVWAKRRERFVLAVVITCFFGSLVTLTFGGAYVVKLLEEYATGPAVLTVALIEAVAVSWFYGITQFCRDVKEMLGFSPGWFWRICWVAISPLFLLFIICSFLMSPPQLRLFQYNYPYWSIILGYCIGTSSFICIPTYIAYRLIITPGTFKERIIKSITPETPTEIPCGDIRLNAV

Q: With `Cc1ccc([C@H]2C3CCC(C[C@H]2c2ccccc2)N3C)cc1` (some centres not stated) as the compound, how does the IC50 [1] read?
A: 11000 nM

Q: And the Ki [1]?
A: 1000 nM

Q: And the IC50 [2]?
A: 540 nM

Q: And the IC50 [3]?
A: 4700 nM

Q: And the Ki [3]?
A: 2800 nM

Q: `Cc1ccc([C@@H]2C3CCC(C[C@@H]2c2ccccc2)N3C)cc1` (some centres not stated) was tested. Which IC50 [1] did it give?
A: 45000 nM

Q: What about the Ki [1] of the same compound?
A: 4100 nM

Q: What about the IC50 [2] of the same compound?
A: 22.4 nM

Q: What about the IC50 [3] of the same compound?
A: 6100 nM

Q: And the Ki [3]?
A: 3700 nM

Q: `Cc1ccc([C@H]2CC3CCC([C@H]2c2ccccc2)N3C)cc1` (some centres not stated) was tested. Which IC50 [1] did it give?
A: 1100 nM

Q: And the Ki [1]?
A: 100 nM

Q: What about the IC50 [2] of the same compound?
A: 1.96 nM

Q: What about the IC50 [3] of the same compound?
A: 480 nM

Q: And the Ki [3]?
A: 280 nM

Q: Which results are given for `Cc1ccc([C@@H]2CC3CCC([C@@H]2c2ccccc2)N3C)cc1` (some centres not stated)?
A: IC50 [1]: 16000 nM; Ki [1]: 1500 nM; IC50 [2]: 430 nM; IC50 [3]: 4850 nM; Ki [3]: 2920 nM

Q: Which results are given for `COc1ccc([C@@H]2C3CCC(C[C@H]2c2ccc(C)cc2)N3C)cc1OC` (some centres not stated)?
A: IC50 [1]: 16200 nM; Ki [1]: 1470 nM; IC50 [2]: 980 nM; IC50 [3]: 78000 nM; Ki [3]: 46000 nM

Q: Which IC50 [1] does the source give for `Cc1ccc([C@H]2CC3CCC([C@H]2c2ccc(C)cc2)N3C)cc1` (some centres not stated) here?
A: 1010 nM

Q: What about the Ki [1] of the same compound?
A: 250 nM

Q: What about the IC50 [2] of the same compound?
A: 1.35 nM

Q: And the Selectivity ratio [4]?
A: 185

Q: And the Selectivity ratio [5]?
A: 289

Q: And the IC50 [3]?
A: 780 nM

Q: What about the Ki [3] of the same compound?
A: 390 nM

Q: How did the IC50 [1] turn out when `CN1C2CCC1[C@@H](c1ccccc1)[C@@H](c1ccccc1)C2` (some centres not stated) was run?
A: 21000 nM

Q: What about the Ki [1] of the same compound?
A: 1900 nM

Q: And the IC50 [2]?
A: 12.6 nM

Q: And the IC50 [3]?
A: 920 nM

Q: What about the Ki [3] of the same compound?
A: 550 nM

Q: What does the source list for `COC(=O)[C@@H]1C2CC[C@H](C[C@@H]1c1ccc(C)cc1)N2C`?
A: IC50 [2]: 23.4 nM; IC50 [3]: 3850 nM; Ki [3]: 1930 nM

Q: For `CN1C2CCC1[C@H](c1ccccc1)[C@H](c1ccccc1)C2` (some centres not stated), which IC50 [1] is on record?
A: 41000 nM

Q: And the Ki [1]?
A: 3700 nM

Q: What about the IC50 [2] of the same compound?
A: 690 nM

Q: And the IC50 [3]?
A: 1040 nM

Q: And the Ki [3]?
A: 626 nM

Q: Which IC50 [1] does the source give for `COc1ccc([C@@H]2C3CCC(C[C@@H]2c2ccc(C)cc2)N3C)cc1OC` (some centres not stated) here?
A: 13700 nM

Q: And the Ki [1]?
A: 1250 nM

Q: What about the IC50 [2] of the same compound?
A: 23.3 nM

Q: And the IC50 [3]?
A: 10000 nM

Q: And the Ki [3]?
A: 6000 nM

Q: `Cc1ccc([C@@H]2CC3CCC([C@@H]2c2ccc(C)cc2)N3C)cc1` (some centres not stated) was tested. Which IC50 [1] did it give?
A: 10000 nM

Q: What about the Ki [1] of the same compound?
A: 910 nM

Q: And the IC50 [3]?
A: 13000 nM

Q: What about the Ki [3] of the same compound?
A: 7800 nM

Q: How did the IC50 [1] turn out when `COc1ccc([C@@H]2C3CCC(C[C@@H]2c2ccc(C)cc2)N3C)cc1` (some centres not stated) was run?
A: 1670 nM

Q: And the Ki [1]?
A: 410 nM

Q: And the IC50 [2]?
A: 1.23 nM

Q: And the IC50 [3]?
A: 282 nM

Q: What about the Ki [3] of the same compound?
A: 191 nM

Q: For `Cc1ccc([C@H]2CC3CCC([C@H]2c2ccc(F)cc2)N3C)cc1` (some centres not stated), which IC50 [1] is on record?
A: 100 nM

Q: And the Ki [1]?
A: 25 nM

Q: And the IC50 [2]?
A: 0.9 nM

Q: What about the IC50 [3] of the same compound?
A: 132 nM

Q: And the Ki [3]?
A: 61 nM

Q: Which IC50 [1] does the source give for `COc1ccc([C@H]2C3CCC(C[C@H]2c2ccc(C)cc2)N3C)cc1` (some centres not stated) here?
A: 1530 nM

Q: What about the Ki [1] of the same compound?
A: 376 nM

Q: What about the IC50 [2] of the same compound?
A: 238 nM
